Measured values as given in patent publication US20250215030A1, “STAT MODULATORS AND USES THEREOF” (Recludix Pharma, Inc., priority 2022, published 2025).

What was measured:
[1] = target: T1, Recombinant STAT3 protein (STAT3(G127-I722)) (Homo sapiens, UniProt P40763); assay: STAT3 Fluorescence Polarization (FP) Assay; type: binding; conditions: STAT3(G127-I722) 25 nM, probe 5-FAM-GpYLPQTV-NH2 2 nM, 45-minute incubation
T1 construct: STAT3(G127-I722)
Method in brief: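 STAT3(G127-I722) at 25 nM and 5-FAM-GpYLPQTV-NH2 probe at 2 nM in HEPES pH 7.4 buffer with NaCl, EDTA, Tween 20, DTT; 1% DMSO. FP read after 45 min at room temperature; IC50 by nonlinear regression of mP vs log concentration, binned A ≤100 nM to D >10 μM.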

[2] = target: T2, Recombinant STAT6 protein (STAT6(W123-T658)) (Homo sapiens, UniProt P42226); assay: STAT6 Fluorescence Polarization (FP) Assay; type: binding; conditions: STAT6(W123-T658) 250 nM, probe 5-FAM-ApYKPFQDLI-NH2 2 nM, 45-minute incubation
T2 construct: STAT6(W123-T658)
T2 sequence (P42226 123-658): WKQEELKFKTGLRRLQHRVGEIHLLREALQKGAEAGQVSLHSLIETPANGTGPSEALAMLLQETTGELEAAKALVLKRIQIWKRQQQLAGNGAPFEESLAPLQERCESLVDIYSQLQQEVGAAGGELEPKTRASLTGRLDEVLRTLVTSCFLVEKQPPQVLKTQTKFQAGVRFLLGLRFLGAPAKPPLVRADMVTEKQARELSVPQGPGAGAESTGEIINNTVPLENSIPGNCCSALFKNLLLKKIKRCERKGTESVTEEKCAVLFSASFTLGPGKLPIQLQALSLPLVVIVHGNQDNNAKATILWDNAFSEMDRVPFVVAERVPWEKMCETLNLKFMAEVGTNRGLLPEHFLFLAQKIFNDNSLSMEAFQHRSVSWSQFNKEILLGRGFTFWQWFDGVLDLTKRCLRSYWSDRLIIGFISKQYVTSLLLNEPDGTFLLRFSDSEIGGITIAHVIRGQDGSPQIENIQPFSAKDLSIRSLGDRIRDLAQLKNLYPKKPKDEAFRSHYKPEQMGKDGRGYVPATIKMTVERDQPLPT
Method in brief: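 STAT6 (W123-T658) at 250 nM mixed with 2 nM 5-FAM-ApYKPFQDLI-NH2 probe in HEPES pH 7.4 buffer with DTT and Tween 20, 1% DMSO final. Polarization read after 45 min at room temperature; IC50 by nonlinear regression of mP versus log concentration, reported in bins A–D.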

T1 sequence (P40763 127-722, species assumed): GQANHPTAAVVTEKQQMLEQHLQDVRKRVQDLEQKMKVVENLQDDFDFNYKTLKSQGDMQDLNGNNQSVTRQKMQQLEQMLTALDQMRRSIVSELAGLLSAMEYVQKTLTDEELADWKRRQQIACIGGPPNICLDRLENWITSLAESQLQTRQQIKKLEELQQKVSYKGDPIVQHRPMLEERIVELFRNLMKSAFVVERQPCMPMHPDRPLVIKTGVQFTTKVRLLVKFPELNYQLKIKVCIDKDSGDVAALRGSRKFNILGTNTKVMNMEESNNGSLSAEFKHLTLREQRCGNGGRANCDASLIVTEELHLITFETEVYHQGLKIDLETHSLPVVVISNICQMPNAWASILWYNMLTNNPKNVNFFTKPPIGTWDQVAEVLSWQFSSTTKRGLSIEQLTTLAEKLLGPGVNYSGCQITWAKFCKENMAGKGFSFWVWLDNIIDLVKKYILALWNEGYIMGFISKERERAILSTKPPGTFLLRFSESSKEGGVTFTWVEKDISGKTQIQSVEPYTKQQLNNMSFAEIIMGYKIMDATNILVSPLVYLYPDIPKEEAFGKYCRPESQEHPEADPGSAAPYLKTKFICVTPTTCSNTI

Row | Molecule | IC50 [1] [nM] | IC50 [2] [nM]
1 | CN=S(C)(=O)CC1CN(C(=O)[C@@H]2CC[C@@H]3C[C@@H]4C[C@@H]4C[C@H](NC(=O)c4cc5cc(C(F)(F)P(=O)(O)O)ccc5s4)C(=O)N32)C1 (stereo partly drawn) [Compound 72, ((2-(((3S,6S,7aR,8aS,9aR)-3-(3-((N,S-dimethylsulfonimidoyl)methyl)azetidine-1-carbonyl)-5-oxodecahydro-1H-cyclopropa[d]pyrrolo[1,2-a]azocin-6-yl)carbamoyl)benzo[b]thiophen-5-yl)difluoromethyl)phosphonic acid] | < 100 | 3000 to 30000
2 | O=C(N[C@H]1C[C@H]2C[C@H]2C[C@H]2CC[C@@H](C(=O)N3CC(n4ccnc4)C3)N2C1=O)c1cc2cc(CP(=O)(O)O)ccc2s1 [Compound 25, ((2-(((3S,6S,7aR,8aS,9aR)-3-(3-(1H-imidazol-1-yl)azetidine-1-carbonyl)-5-oxodecahydro-1H-cyclopropa[d]pyrrolo[1,2-a]azocin-6-yl)carbamoyl)benzo[b]thiophen-5-yl)methyl)phosphonic acid] | 100 to 1000 | > 30000
3 | O=C(N[C@H]1C[C@@H]2C[C@@H]2C[C@H]2CC[C@@H](C(=O)N[C@H]3CN(c4ncc[nH]4)C[C@@H]3F)N2C1=O)c1cc2cc(C(F)P(=O)(O)O)ccc2s1 (stereo partly drawn) [Example 339, (fluoro(2-(((3S,6S,7aS,8aR,9aR)-3-(((3S,4S)-4-fluoro-1-(1H-imidazol-2-yl)pyrrolidin-3-yl)carbamoyl)-5-oxodecahydro-1H-cyclopropa[d]pyrrolo[1,2-a]azocin-6-yl)carbamoyl)benzo[b]thiophen-5-yl)methyl)phosphonic acid] | < 100 | 300 to 3000
4 | O=C(N[C@H]1C[C@@H]2C[C@@H]2C[C@H]2CC[C@@H](C(=O)N[C@@H]3CCN(C4COC4)C3)N2C1=O)c1cc2cc(C(F)(F)P(=O)(O)O)ccc2s1 [Compound 48, (difluoro(2-(((3S,6S,7aS,8aR,9aR)-3-(((R)-1-(oxetan-3-yl)pyrrolidin-3-yl)carbamoyl)-5-oxodecahydro-1H-cyclopropa[d]pyrrolo[1,2-a]azocin-6-yl)carbamoyl)benzo[b]thiophen-5-yl)methyl)phosphonic acid] | 100 to 1000 | 3000 to 30000
5 | (difluoro(2-(((3S,6S,7aR,8aS,9aR)-5-ox0-3-(3-(pyridin-2-yl)azetidine-1-carbonyl)decahydro-1H-cyclopropa[d]pyrrolo[1,2-a]azocin-6-yl)carbamoyl)benzo[b]thiophen-5-yl)methyl)phosphonic acid [Compound 106] | < 100 | 300 to 3000
6 | O=C(N[C@H]1C[C@H]2C[C@H]2C[C@H]2CC[C@@H](C(=O)N[C@H]3CN(c4cccnc4)C[C@@H]3F)N2C1=O)c1cc2cc(C(F)P(=O)(O)O)ccc2s1 (stereo partly drawn) [Example 267, (fluoro(2-(((3S,6S,7aR,8aS,9aR)-3-(((3S,4S)-4-fluoro-1-(pyridin-3-yl)pyrrolidin-3-yl)carbamoyl)-5-oxodecahydro-1H-cyclopropa[d]pyrrolo[1,2-a]azocin-6-yl)carbamoyl)benzo[b]thiophen-5-yl)methyl)phosphonic acid] | < 100 | 300 to 3000
7 | CC1(C(=O)N2CCOCC2)CN(C(=O)[C@@H]2CC[C@@H]3C[C@H]4C[C@H]4C[C@H](NC(=O)c4cc5cc(C(F)(F)P(=O)(O)O)ccc5s4)C(=O)N32)C1 [Compound 93, (difluoro(2-(((3S,6S,7aS,8aR,9aR)-3-(3-methyl-3-(morpholine-4-carbonyl)azetidine-1-carbonyl)-5-oxodecahydro-1H-cyclopropa[d]pyrrolo[1,2-a]azocin-6-yl)carbamoyl)benzo[b]thiophen-5-yl)methyl)phosphonic acid] | 100 to 1000 | 3000 to 30000
8 | C[C@H]1CN(C(=O)C2CN(C(=O)[C@@H]3CC[C@@H]4C[C@H]5C[C@H]5C[C@H](NC(=O)c5cc6cc(C(F)(F)P(=O)(O)O)ccc6s5)C(=O)N43)C2)CCO1 [Compound 12, (difluoro(2-(((3S,6S,7aS,8aR,9aR)-3-(3-((S)-2-methylmorpholine-4-carbonyl)azetidine-1-carbonyl)-5-oxodecahydro-1H-cyclopropa[d]pyrrolo[1,2-a]azocin-6-yl)carbamoyl)benzo[b]thiophen-5-yl)methyl)phosphonic acid] | < 100 | 3000 to 30000
9 | O=C(N[C@H]1C[C@@H]2C[C@@H]2C[C@H]2CC[C@@H](C(=O)N[C@H]3CN(c4ccccn4)C[C@@H]3F)N2C1=O)c1cc2cc(CP(=O)(O)O)ccc2s1 [Example 246, ((2-(((3S,6S,7aS,8aR,9aR)-3-(((3S,4S)-4-fluoro-1-(pyridin-2-yl)pyrrolidin-3-yl)carbamoyl)-5-oxodecahydro-1H-cyclopropa[d]pyrrolo[1,2-a]azocin-6-yl)carbamoyl)benzo[b]thiophen-5-yl)methyl)phosphonic acid] | 100 to 1000 | 3000 to 30000
10 | (difluoro(2-(((3S,6S,8aR,9aS,9bR)-3-(3-methoxy-3-(1-methyl-1H-imidazol-2-yl)azetidine-1-carbonyl)-8a-methyl-5-oxodecahydro-1H-cyclopropa[c]pyrrolo[1,2-a]azocin-6-yl)carbamoyl)benzo[b]thiophen-5-yl)methyl)phosphonic acid [Example 241] | 100 to 1000 | 3000 to 30000
11 | O=C(N[C@H]1C[C@H]2C[C@H]2C[C@H]2CC[C@@H](C(=O)N3CC(c4ncccn4)C3)N2C1=O)c1cc2cc(C(F)P(=O)(O)O)ccc2s1 (stereo partly drawn) [Example 317, (fluoro(2-(((3S,6S,7aR,8aS,9aR)-5-oxo-3-(3-(pyrimidin-2-yl)azetidine-1-carbonyl)decahydro-1H-cyclopropa[d]pyrrolo[1,2-a]azocin-6-yl)carbamoyl)benzo[b]thiophen-5-yl)methyl)phosphonic acid] | < 100 | 3000 to 30000
12 | CO[C@@H]1CCN(c2ccncc2C2CN(C(=O)[C@@H]3CC[C@@H]4C[C@H]5C[C@H]5C[C@H](NC(=O)c5cc6cc([C@@H](F)P(=O)(O)O)ccc6s5)C(=O)N43)C2)C1 [Example 422, ((S)-fluoro(2-(((3S,6S,7aS,8aR,9aR)-3-(3-(4-((R)-3-methoxypyrrolidin-1-yl)pyridin-3-yl)azetidine-1-carbonyl)-5-oxodecahydro-1H-cyclopropa[d]pyrrolo[1,2-a]azocin-6-yl)carbamoyl)benzo[b]thiophen-5-yl)methyl)phosphonic acid] | < 100 | 3000 to 30000
13 | O=C(N[C@H]1C[C@H]2C[C@H]2C[C@H]2CC[C@@H](C(=O)N3CC(c4ncccn4)C3)N2C1=O)c1cc2cc(C(F)(F)P(=O)(O)O)ccc2s1 [Compound 80, (difluoro(2-(((3S,6S,7aR,8aS,9aR)-5-oxo-3-(3-(pyrimidin-2-yl)azetidine-1-carbonyl)decahydro-1H-cyclopropa[d]pyrrolo[1,2-a]azocin-6-yl)carbamoyl)benzo[b]thiophen-5-yl)methyl)phosphonic acid] | < 100 | 3000 to 30000
14 | O=C(N[C@H]1C[C@@H]2C[C@@H]2C[C@H]2CC[C@@H](C(=O)N3CC(c4ncco4)C3)N2C1=O)c1cc2cc(C(F)(F)P(=O)(O)O)ccc2s1 [Example 300, (difluoro(2-(((3S,6S,7aS,8aR,9aR)-3-(3-(oxazol-2-yl)azetidine-1-carbonyl)-5-oxodecahydro-1H-cyclopropa[d]pyrrolo[1,2-a]azocin-6-yl)carbamoyl)benzo[b]thiophen-5-yl)methyl)phosphonic acid] | < 100 | 300 to 3000
15 | O=C(N[C@H]1C[C@H]2C[C@H]2C[C@H]2CC[C@@H](C(=O)N3CC(c4ccon4)C3)N2C1=O)c1cc2cc([C@@H](F)P(=O)(O)O)ccc2s1 (single isomer, unassigned) [Example 344] | < 100 | 3000 to 30000
16 | CS(=O)(=O)CC1CN(C(=O)[C@@H]2CC[C@@H]3C[C@@H]4C[C@@H]4C[C@H](NC(=O)c4cc5cc(C(F)(F)P(=O)(O)O)ccc5s4)C(=O)N32)C1 [Compound 69, (difluoro(2-(((3S,6S,7aR,8aS,9aR)-3-(3-((methylsulfonyl)methyl)azetidine-1-carbonyl)-5-oxodecahydro-1H-cyclopropa[d]pyrrolo[1,2-a]azocin-6-yl)carbamoyl)benzo[b]thiophen-5-yl)methyl)phosphonic acid] | < 100 | 3000 to 30000
17 | O=C(N[C@H]1C[C@@H]2C[C@@H]2C[C@H]2CC[C@@H](C(=O)N3CC(c4cnccc4F)C3)N2C1=O)c1cc2cc(C(F)P(=O)(O)O)ccc2s1 (stereo partly drawn) [Example 262, (fluoro(2-(((3S,6S,7aS,8aR,9aR)-3-(3-(4-fluoropyridin-3-yl)azetidine-1-carbonyl)-5-oxodecahydro-1H-cyclopropa[d]pyrrolo[1,2-a]azocin-6-yl)carbamoyl)benzo[b]thiophen-5-yl)methyl)phosphonic acid] | < 100 | 300 to 3000
